The text below walks through data of patent US20230211023A1, “REPORTER SYSTEM FOR RADIONUCLIDE IMAGING” (Erasmus University Medical Center Rotterdam, priority 2020, published 2023).

In one assay the target is LgBiT (Oplophorus gracilirostris, UniProt Q9GV45, A31E/A60N/A81I/D135N/F58L/F95D/G42A/G62A/G78A/G94A/G98A/H120P/I103V/I117V/I134L/K70R/L176M/L54V/L73R/L99Q/M102E/N171T/P142E/Q151K/Q38E/Q45L/V71I/Y165I). Conditions: Dixon et al., 2016; read-out: Kd for binding to LgBiT / NLuc; cited from earlier work.
For another assay, the system named is PC3-TMLgBiT tumors. Put plainly: BL and dynamic SPECT/CT imaging of mice bearing PC3-TMLgBiT tumors (FIG. 7). Type of assay: in vivo, mouse. Conditions: dynamic SPECT scan 1 hour after injection of 0,13 nM. As for the experimental part:
For these experiments, eight-week-old nude BALB/C male mice (n=12) were injected with 5x10^6 PC-3-TM-LgBiT expressing cells (n=8). Cells were prepared for injections in PBS (Sigma-Aldrich) and matrigel (Corning) solution with a 50:50 ratio and a final injectable volume of 50 µL. Tumors were left to grow approximately 3-4 weeks post tumor cell implantation. To determine the functionality of the imaging system, a dynamic whole body SPECT/CT scan (VECT/CT Milabs) was performed. Mice were anesthetized using 1-2% isoflurane/O2 and the body temperature was maintained at 37° C. during the time of imaging (1 h) by using a heated bed aperture. The 1-hour dynamic SPECT/CT scan was performed immediately after tail vein injection of [^111In]-DOTA-6ahx-HiBiT for the PC-3 tumor model, (20 MBq labeled to 0.13 nmol in 200 µL PBS). […] Dynamic scans were obtained over a total duration of 1 h with 30 time frames, directly after injection of [^111In]-DOTA-6ahx-HiBiT. Acquired images were reconstructed using SR-OSEM with 9 iterations and 128 subsets on a 36 × 36 × 35 mm matrix with 0.80 × 0.80 mm isotropic voxels.

For assay [1], the system named is subcutaneously injected TMLgBiT expressing cells. Put plainly: SPECT imaging of mouse injected subcutaneously with TMLgBiT expressing cells. It counts as in vivo. Conditions: 1 hour after injection of peptide, 20 MBq.
Assay [2] has as its system cells expressing the reporter gene TMLgBiT. The assay can be described thus: Binding of radiolabelled peptide to live cells expressing TMLgBiT, gamma counter. Type of assay: cell-based. The following applies: 1 nM peptide, 20,000 cells/well, washed three times. As for the experimental part:
The [^111In]-DOTA-6ahx-HiBiT peptide (1 nM) is added to cells expressing the reporter gene TMLgBiT and cells not expressing TMLgBiT are used as negative control (20,000 cells/well). Cells are washed three times and radioactivity measured at a gamma counter. A clear difference in radioactive signal (2000 fold) resulted between TMLgBiT expressing cells and cells non expressing the reporter gene. In FIG. 3, the radiation (in CPM, measured using a gamma counter) of cells expressing TMLgBiT and control cells after addition of […] of radioactive [^111In]-DOTA-6ahx-HiBiT peptide is provided.

Sequence of subcutaneously injected TMLgBiT expressing cells (as listed by the source): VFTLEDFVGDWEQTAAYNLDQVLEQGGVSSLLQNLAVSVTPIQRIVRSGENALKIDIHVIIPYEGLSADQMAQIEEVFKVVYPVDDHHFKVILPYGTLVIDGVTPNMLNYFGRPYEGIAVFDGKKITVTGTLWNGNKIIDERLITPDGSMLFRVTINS
Sequence of LgBiT (Q9GV45 other isoform, or with tags, fused parts or gaps with the stated changes): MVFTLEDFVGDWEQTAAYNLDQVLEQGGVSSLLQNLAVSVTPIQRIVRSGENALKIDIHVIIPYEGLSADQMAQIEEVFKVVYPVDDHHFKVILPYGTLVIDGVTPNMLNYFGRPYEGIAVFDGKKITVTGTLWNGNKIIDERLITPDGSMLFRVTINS
Sequence of PC3-TMLgBiT tumors (as listed by the source): as the sequence (as listed by the source) above
Sequence of cells expressing the reporter gene TMLgBiT (as listed by the source): as above

As for NVSGWRLFKKISN [NLpep78], at LgBiT, the Kd is 3.4 nM.

Regarding NVTGYRLFKKISN [NLpep79], on LgBiT, the Kd was 8.5 nM.

Regarding “[^111In]-DOTA-6ahx-HiBiT: DOTA-6ahx-HiBiT radiolabelled with indium-111”, the “SPECT signal from tumor” value in the assay with PC3-TMLgBiT tumors was “specific signal from tumor is visible”. For the same substance, the figures for the “SPECT detection of TMLgBiT expressing cells in vivo” value in assay [1], in assay [1] (listed as 111In -DOTA-6ax-HiBit) and in assay [1] (listed as radiolabeled HiBiT peptide) were “can be specifically detected”, “could be detected in vivo” and “High specific signal is detected”, respectively. Besides, the “difference in radioactive signal between TMLgBiT expressing cells and cells not expressing the reporter gene” value in assay [2] was determined as 2000 fold.
